These results are taken from patent US20250353864A1, “INDAZOLE CONTAINING MACROCYCLES AND THEIR USE” (BLOSSOMHILL THERAPEUTICS, INC., priority 2022, published 2025).

Molecules are shown by their SMILES.

In general, IC50 refers to the concentration that gives 50% inhibition.

Common to all, as to assay type: biochemical
In one assay the target is EGFR WT (Homo sapiens (Human), UniProt P00533). Nature of the assay: HotSpot radiometric kinase assay (Reaction Biology), EGFR WT. The note with it: 10 μM ATP. Put shortly: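 10 μM ATP (33P-labelled, final); 120 min RT; P81 filter capture, 0.75% phosphoric acid washes. Cpd preincubated ~20 min with enzyme/substrate, 20 mM Hepes pH 7.5, 10 mM MgCl2, 1% DMSO. IC50 by curve fit.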

Another assay addresses EGFR (D770_N771insNPG) (Homo sapiens (Human), UniProt P00533, INS770NPG). In words: HotSpot radiometric kinase assay, EGFR (D770_N771insNPG). The note with it: 10 μM ATP, read-out: EGFR (Δ770_N771insNPG) IC50. Put shortly: (§1)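 Radiometric filter-binding assay with EGFR mutant kinase/substrate pairs in 20 mM Hepes pH 7.5 with Mg, EGTA, Brij35, BSA, Na3VO4, DTT, 1% DMSO. Compound preincubated ~20 min, then ATP/^33P-ATP added at 10 μM final. Reaction 120 min at room temperature, spotted on P81 paper; IC50 from curve fits.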

The target of a further assay is EGFR Δ746-750 mutant (Homo sapiens (Human), UniProt P00533, DEL746-750). In words: HotSpot radiometric kinase assay, EGFR Δ746-750 mutant. The following applies: 10 μM ATP. Put shortly:
as §1

Assay [1] deals with EGFR Δ746-750/C797S mutant (Homo sapiens (Human), UniProt P00533, C797S/DEL746-750). Nature of the assay: HotSpot radiometric kinase assay, EGFR Δ746-750/C797S mutant. The note with it: 10 μM ATP. A digest of the protocol: as §1
Another assay concerns the target EGFR L858R mutant (Homo sapiens (Human), UniProt P00533, L858R). Nature of the assay: HotSpot radiometric kinase assay, EGFR L858R mutant. The note with it: 10 μM ATP. A digest of the protocol: as §1
Another assay has as its target EGFR L858R/T790M mutant (Homo sapiens (Human), UniProt P00533, L858R/T790M). In words: HotSpot radiometric kinase assay, EGFR L858R/T790M mutant. The following applies: 10 μM ATP. Put shortly:
as §1

Assay [2] has as its target EGFR L858R/T790M/C797S mutant (Homo sapiens (Human), UniProt P00533, C797S/L858R/T790M). Nature of the assay: HotSpot radiometric kinase assay, EGFR L858R/T790M/C797S mutant. The note with it: 10 μM ATP. A digest of the protocol:
as §1

In a further assay the target is CLK1 (Homo sapiens (Human), UniProt P49759). In words: Inhibition of CLK1 kinase activity evaluated at Nanosyn (ADP-Glo). The following applies: ADP-Glo luminescence. Put shortly: (§2)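 Enzyme + substrate in HEPES pH 7.5/MgCl2/DTT buffer; compound dispensed acoustically, 1% DMSO. ATP start, assay-specific incubation time. ADP-Glo reagent 40 min, detection reagent 10 min, luminescence. %inh vs DMSO (0%) and no-enzyme (100%) controls.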
(ADP-Glo turns the ADP formed in a reaction into a luminescent signal.)

Another assay addresses CLK2 (Homo sapiens (Human), UniProt P49760). Nature of the assay: Inhibition of CLK2 kinase activity evaluated at Nanosyn (ADP-Glo). The note with it: ADP-Glo luminescence. A digest of the protocol: as §2
Another assay concerns the target CLK3 (Homo sapiens (Human), UniProt P49761). Nature of the assay: Inhibition of CLK3 kinase activity evaluated at Nanosyn (ADP-Glo). The note with it: ADP-Glo luminescence. Put shortly:
as §2

The next assay has as its target CLK4 (Homo sapiens (Human), UniProt Q9HAZ1). In words: Inhibition of CLK4 kinase activity evaluated at Nanosyn (ADP-Glo). The following applies: ADP-Glo luminescence. A digest of the protocol:
as §2

Chain of EGFR L858R mutant (P00533 25-1210 L858R): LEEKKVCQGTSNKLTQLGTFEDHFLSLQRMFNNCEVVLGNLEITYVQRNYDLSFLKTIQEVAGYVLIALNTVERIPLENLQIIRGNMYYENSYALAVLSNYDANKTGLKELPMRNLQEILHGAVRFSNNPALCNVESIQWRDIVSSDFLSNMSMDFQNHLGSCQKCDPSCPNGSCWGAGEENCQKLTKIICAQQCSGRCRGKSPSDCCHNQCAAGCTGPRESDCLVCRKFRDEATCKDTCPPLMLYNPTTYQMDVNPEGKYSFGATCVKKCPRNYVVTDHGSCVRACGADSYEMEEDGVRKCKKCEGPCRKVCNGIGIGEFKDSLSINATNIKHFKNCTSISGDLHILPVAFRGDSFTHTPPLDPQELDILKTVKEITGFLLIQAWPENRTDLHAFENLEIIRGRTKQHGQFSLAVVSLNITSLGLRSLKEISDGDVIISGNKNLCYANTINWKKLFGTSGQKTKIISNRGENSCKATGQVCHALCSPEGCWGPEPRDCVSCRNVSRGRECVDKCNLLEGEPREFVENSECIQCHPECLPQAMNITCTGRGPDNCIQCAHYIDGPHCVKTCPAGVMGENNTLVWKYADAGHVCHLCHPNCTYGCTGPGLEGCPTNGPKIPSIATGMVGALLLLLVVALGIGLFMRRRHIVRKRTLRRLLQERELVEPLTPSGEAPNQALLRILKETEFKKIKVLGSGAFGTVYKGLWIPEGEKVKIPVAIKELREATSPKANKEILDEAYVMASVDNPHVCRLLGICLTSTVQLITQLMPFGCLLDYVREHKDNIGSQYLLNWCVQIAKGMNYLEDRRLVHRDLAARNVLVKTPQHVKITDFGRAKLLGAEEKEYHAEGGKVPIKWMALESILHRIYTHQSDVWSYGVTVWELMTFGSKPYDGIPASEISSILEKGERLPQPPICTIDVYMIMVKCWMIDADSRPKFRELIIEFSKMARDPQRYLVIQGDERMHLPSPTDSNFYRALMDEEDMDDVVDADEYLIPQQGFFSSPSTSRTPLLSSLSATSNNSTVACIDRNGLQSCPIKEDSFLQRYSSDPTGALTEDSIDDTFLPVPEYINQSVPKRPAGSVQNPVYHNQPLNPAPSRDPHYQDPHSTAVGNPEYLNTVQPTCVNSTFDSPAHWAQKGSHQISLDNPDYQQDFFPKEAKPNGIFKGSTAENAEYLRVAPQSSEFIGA
Chain of CLK1 (P49759 whole entry): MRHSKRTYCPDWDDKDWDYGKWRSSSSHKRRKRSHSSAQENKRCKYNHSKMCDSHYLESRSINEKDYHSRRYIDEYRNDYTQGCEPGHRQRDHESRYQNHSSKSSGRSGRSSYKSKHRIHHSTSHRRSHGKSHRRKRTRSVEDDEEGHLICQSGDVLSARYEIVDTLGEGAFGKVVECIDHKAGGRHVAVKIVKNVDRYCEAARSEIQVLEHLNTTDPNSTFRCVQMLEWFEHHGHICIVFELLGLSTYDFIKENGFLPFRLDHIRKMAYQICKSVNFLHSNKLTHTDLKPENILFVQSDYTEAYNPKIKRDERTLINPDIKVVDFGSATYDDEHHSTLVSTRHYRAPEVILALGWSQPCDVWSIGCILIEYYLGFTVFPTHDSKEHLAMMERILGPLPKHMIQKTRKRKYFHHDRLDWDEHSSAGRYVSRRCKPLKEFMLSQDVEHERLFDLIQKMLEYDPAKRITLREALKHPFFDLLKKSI
Chain of CLK4 (Q9HAZ1 whole entry): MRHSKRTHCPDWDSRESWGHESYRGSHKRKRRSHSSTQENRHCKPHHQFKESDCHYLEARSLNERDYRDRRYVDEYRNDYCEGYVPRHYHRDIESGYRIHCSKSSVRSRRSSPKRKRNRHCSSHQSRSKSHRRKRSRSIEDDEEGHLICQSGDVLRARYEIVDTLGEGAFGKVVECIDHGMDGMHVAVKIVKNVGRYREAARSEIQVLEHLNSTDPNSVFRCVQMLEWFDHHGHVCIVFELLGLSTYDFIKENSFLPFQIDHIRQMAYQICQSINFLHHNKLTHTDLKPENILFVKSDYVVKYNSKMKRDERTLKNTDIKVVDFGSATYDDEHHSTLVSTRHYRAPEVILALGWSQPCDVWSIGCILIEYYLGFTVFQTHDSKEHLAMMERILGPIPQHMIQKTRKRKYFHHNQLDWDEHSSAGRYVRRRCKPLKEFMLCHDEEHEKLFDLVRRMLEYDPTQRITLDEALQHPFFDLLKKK
Chain of EGFR Δ746-750/C797S mutant (P00533 other isoform, or with tags, fused parts or gaps C797S/del 1-668/del 746-750 limits assumed): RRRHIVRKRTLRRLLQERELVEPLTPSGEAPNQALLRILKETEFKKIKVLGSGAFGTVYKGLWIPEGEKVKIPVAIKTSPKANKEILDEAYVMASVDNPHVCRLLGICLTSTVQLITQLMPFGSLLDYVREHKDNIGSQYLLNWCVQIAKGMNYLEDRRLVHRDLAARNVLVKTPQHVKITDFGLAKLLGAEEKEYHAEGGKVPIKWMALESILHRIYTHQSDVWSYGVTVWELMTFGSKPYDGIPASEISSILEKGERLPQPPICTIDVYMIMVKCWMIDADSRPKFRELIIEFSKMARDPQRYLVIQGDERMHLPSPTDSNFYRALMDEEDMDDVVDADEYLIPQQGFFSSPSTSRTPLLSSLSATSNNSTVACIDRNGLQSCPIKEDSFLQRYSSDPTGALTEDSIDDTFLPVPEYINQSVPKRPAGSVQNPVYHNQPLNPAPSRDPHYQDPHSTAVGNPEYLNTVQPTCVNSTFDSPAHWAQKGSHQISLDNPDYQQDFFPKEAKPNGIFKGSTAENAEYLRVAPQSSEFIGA
Chain of EGFR Δ746-750 mutant (P00533 other isoform, or with tags, fused parts or gaps del 1-668/del 746-750 limits assumed): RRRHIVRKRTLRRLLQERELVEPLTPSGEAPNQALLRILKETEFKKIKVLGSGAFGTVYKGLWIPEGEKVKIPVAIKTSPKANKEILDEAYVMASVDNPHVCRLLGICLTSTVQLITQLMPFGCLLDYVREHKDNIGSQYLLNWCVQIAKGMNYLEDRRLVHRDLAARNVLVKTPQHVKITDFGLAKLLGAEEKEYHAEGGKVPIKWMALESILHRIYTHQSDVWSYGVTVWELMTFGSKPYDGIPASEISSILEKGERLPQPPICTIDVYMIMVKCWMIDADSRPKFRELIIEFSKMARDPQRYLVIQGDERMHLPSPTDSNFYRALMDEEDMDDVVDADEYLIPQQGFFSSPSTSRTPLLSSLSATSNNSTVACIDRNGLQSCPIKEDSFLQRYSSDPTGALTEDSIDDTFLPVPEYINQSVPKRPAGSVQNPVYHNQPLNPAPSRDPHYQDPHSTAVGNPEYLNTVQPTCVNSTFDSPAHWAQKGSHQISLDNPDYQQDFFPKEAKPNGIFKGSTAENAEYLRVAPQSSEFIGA
Chain of EGFR (D770_N771insNPG) (P00533 other isoform, or with tags, fused parts or gaps del 1-668/ins NPG behind 770 limits assumed): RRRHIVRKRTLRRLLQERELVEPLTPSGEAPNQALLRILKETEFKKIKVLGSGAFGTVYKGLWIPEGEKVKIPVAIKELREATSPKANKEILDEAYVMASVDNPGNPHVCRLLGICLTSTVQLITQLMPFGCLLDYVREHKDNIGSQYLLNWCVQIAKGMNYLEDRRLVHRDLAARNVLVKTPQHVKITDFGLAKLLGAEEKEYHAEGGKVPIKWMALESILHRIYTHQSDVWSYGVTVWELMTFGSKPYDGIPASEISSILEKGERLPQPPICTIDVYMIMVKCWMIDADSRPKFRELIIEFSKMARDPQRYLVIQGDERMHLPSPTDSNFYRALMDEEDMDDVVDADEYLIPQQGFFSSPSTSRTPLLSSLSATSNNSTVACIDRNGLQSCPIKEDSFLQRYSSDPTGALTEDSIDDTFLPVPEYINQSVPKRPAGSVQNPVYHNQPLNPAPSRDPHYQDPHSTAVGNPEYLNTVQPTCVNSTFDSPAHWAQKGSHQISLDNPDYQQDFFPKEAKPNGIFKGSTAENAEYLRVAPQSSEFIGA
Chain of EGFR L858R/T790M mutant (P00533 25-1210 T790M/L858R): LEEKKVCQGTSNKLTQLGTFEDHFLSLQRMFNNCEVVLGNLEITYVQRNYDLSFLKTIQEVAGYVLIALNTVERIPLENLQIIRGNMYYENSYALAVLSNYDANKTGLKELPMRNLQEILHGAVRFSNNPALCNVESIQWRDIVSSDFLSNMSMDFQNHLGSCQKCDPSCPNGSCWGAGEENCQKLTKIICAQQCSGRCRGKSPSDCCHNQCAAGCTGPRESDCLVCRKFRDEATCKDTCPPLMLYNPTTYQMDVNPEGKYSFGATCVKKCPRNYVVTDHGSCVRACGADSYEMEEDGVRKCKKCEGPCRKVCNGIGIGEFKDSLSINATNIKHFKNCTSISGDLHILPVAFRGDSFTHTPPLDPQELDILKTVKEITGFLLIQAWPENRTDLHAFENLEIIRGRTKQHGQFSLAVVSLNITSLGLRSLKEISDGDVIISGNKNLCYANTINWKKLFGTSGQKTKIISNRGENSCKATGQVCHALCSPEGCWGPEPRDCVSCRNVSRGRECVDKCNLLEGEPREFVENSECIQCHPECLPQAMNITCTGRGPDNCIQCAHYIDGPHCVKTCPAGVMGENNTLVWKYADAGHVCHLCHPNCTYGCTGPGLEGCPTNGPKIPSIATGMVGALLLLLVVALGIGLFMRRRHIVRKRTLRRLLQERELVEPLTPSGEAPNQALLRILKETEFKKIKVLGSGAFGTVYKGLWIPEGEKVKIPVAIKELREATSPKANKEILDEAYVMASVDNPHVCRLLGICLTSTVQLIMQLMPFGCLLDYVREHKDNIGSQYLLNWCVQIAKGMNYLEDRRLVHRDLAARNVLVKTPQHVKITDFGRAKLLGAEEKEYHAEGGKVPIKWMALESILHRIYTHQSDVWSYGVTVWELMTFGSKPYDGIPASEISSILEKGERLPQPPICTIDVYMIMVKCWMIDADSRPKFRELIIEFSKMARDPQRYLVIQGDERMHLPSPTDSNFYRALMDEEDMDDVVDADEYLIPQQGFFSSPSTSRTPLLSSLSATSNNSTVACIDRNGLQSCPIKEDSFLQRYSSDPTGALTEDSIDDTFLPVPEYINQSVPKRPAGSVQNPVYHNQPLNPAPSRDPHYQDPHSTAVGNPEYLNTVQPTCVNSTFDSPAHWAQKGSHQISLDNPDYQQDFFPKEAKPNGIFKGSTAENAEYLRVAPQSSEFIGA

Take `CCOc1nn(CCO)c2c1/C=C/c1n[nH]c3ccc(cc13)-c1cnn(C)c1O[C@@H](C)CN(C(C)C)C2` [Example 151, 2-[(10S,17E)-16-ethoxy-8,10-dimethyl-12-(propan-2-yl)-2,8,10,11,12,13-hexahydro-14H-3,5-ethenotripyrazolo[3,4-f:3′,4′-j:4″,3″-n][1,4]oxazacyclopentadecin-14-yl]ethan-1-o]: the IC50 on EGFR WT stood at 0.87 nM; at EGFR (D770_N771insNPG), 2.55 nM; at EGFR Δ746-750 mutant, 0.3 nM; in assay [1] it was 0.72 nM; against EGFR L858R mutant, 0.22 nM; at EGFR L858R/T790M mutant, 0.48 nM. For the same molecule, the IC50 in [2] worked out at 0.46 nM; at CLK1 it was 0.24 nM; at CLK2, 0.04 nM; on CLK3, 23 nM; on CLK4, 0.52 nM.

Take `CC(C)Oc1nn(CCO)c2c1/C=C/c1n[nH]c3cc(F)c(cc13)-c1cnn(C)c1O[C@H](C)CN(C(C)C)C2` [Example 195, 2-{(10R,17E)-19-fluoro-8,10-dimethyl-12-(propan-2-yl)-16-[(propan-2-yl)oxy]-2,8,10,11,12,13-hexahydro-14H-3,5-ethenotripyrazolo[3,4-f:3′,4′-j:4″,3″- n][1,4]oxazacyclopentadecin-14-yl}ethan-1-ol]: the IC50 against EGFR WT was 99.7 nM; on EGFR (D770_N771insNPG), 156 nM; on EGFR Δ746-750 mutant, 18.6 nM; in assay [1], 8.68 nM; against EGFR L858R mutant, 39.9 nM; on EGFR L858R/T790M mutant, 6.18 nM. For the same molecule, the IC50 in [2] amounted to 3.67 nM; at CLK1, 36.6 nM; on CLK2 it was 53.5 nM; on CLK3, 435 nM; at CLK4, 22.3 nM.

For the molecule `CCOc1nn(CCO)c2c1/C=C/c1n[nH]c3ccc(cc13)-c1cnn(C)c1O[C@@H]1CCCN(C2)C1` [Example 137, 2-[(10R,19E)-18-ethoxy-8-methyl-2,10,11,12,13,15-hexahydro-3,5-etheno-10,14-methanotripyrazolo[3,4-h:3′,4′-l:4″,3″-p][1,6]oxazacycloheptadecin-16(8H)-yl]ethan-1-ol], the IC50 at EGFR WT stood at 55.3 nM; at EGFR (D770_N771insNPG), 129 nM; at EGFR Δ746-750 mutant it was 6.59 nM; in assay [1], 4.8 nM; on EGFR L858R mutant, 7.8 nM; on EGFR L858R/T790M mutant it was 0.6 nM. For the same molecule, the IC50 in [2] was determined as 1.02 nM; at CLK1, 1.37 nM; at CLK2 it was 2.13 nM; at CLK3, 79.2 nM; on CLK4, 1.55 nM.

Regarding `C[C@H]1CN(C)Cc2c(c(OC3CC(S(C)(=O)=O)C3)nn2C)/C=C/c2n[nH]c3ccc(cc23)-c2cnn(C)c2O1` (stereo partly drawn) [Example 187, (10S,17E)-16-{I3-(methanesulfonyl)cyclobutyl|oxy}-8,10,12,14-tetramethyl-2,10,11,12,13,14-hexahydro-8H-3,5-ethenotripyrazolo[3,4-f:3′,4′-j:4″,3″-n][1,4]oxazacyclopentadecine], the IC50 against EGFR WT turned out to be 25.9 nM; on EGFR (D770_N771insNPG) it was 74.7 nM; against EGFR Δ746-750 mutant it was 8.88 nM; in assay [1] it was 7.84 nM; at EGFR L858R mutant it was 6.88 nM; against EGFR L858R/T790M mutant, 0.47 nM. The IC50 in assay [2] was 0.33 nM; on CLK1, 0.48 nM; on CLK2, 0.3 nM; at CLK3, 311 nM; on CLK4, 1.35 nM.

Turning to `Cc1nn(CCO)c2c1/C=C/c1n[nH]c3cc(F)c(cc13)-c1cnn(C)c1O[C@@H](C)CN(C)C2` [Example 116, 2-[(10S,17E)-19-fluoro-8,10,12,16-tetramethyl-2,8,10,11,12,13-hexahydro-14H-3,5-ethenotripyrazolo[3,4-f:3′,4′-j:4″,3″-n][1,4]oxazacyclopentadecin-14-yl]ethan-1-ol], the half-maximal inhibitory concentration (IC50) at EGFR WT turned out to be 3.98 nM; on EGFR (D770_N771insNPG), 18.5 nM; on EGFR Δ746-750 mutant, 1.06 nM; in [1], 2.85 nM; at EGFR L858R mutant, 0.58 nM; on EGFR L858R/T790M mutant it was 0.38 nM. Also, the IC50 in assay [2] amounted to 2.71 nM; on CLK1, 0.11 nM; on CLK2 it was 0.04 nM; on CLK3, 10.9 nM; on CLK4 it was 0.4 nM.

For the molecule `CCOc1nn(CCO)c2c1/C=C/c1n[nH]c3cc(F)c(cc13)-c1cnn(C)c1O[C@@H](C)CN(C)C2` [Example 172, 2-[(10S,17E)-16-ethoxy-19-fluoro-8,10,12-trimethyl-2,8,10,11,12,13-hexahydro-14H-3,5-ethenotripyrazolo[3,4-f:3′,4′-j:4″,3″- n][1,4]oxazacyclopentadecin-14-yl]ethan-1-ol], the 50% inhibitory concentration (IC50) on EGFR WT was found to be 1.84 nM; at EGFR (D770_N771insNPG), 6.61 nM; on EGFR Δ746-750 mutant, 2.1 nM; in assay [1], 0.69 nM; against EGFR L858R mutant, 0.6 nM; against EGFR L858R/T790M mutant, 0.48 nM. For the same molecule, the IC50 amounted to 1.34 nM in assay [2]; 0.32 nM on CLK1; 0.08 nM at CLK2; 64.7 nM on CLK3; 0.59 nM at CLK4.

For `CC(C)Oc1nn(CCO)c2c1/C=C/c1n[nH]c3ccc(cc13)-c1cnn(C)c1O[C@@H](C)[C@H]1CCCN1C2` [Example 252, 2-[(8aR,9S,19E)-9,11-dimethyl-1-[(propan-2-yl)oxy]-7,8,8a,9,11,17-hexahydro-6H-14,16-ethenotripyrazolo[3,4-f:3′,4′-j:4″,3″-n]pyrrolo[2,1-c][1,4]oxazacyclopentadecin-3(4H)-yl]ethan-1-ol], the IC50 is 4.74 nM against EGFR WT; 15.7 nM at EGFR (D770_N771insNPG); 1.31 nM against EGFR Δ746-750 mutant; 2.29 nM in [1]; 2.38 nM against EGFR L858R mutant; 1.91 nM on EGFR L858R/T790M mutant. The IC50 in assay [2] is 5.35 nM; at CLK1, 0.83 nM; on CLK2, 0.42 nM; on CLK3 it was 168 nM; on CLK4, 1.59 nM.

On to `C[C@H]1CN(C)Cc2c(c(OC3CCN(S(C)(=O)=O)CC3)nn2C)/C=C/c2n[nH]c3ccc(cc23)-c2cnn(C)c2O1` [Example 143, (10S,17E)-16-{[1-(methanesulfonyl)piperidin-4-yl]oxy}-8,10,12,14-tetramethyl-2,10,11, 12,13,14-hexahydro-8H-3,5-ethenotripyrazolo[3,4-f 3′,4′-j:4″,3″-n][1,4]oxazacyclopentadecine], for which the IC50 against EGFR WT stood at 320 nM; at EGFR (D770_N771insNPG) it was 1630 nM; at EGFR Δ746-750 mutant, 39.4 nM; in [1], 41.3 nM; against EGFR L858R mutant, 39.6 nM; on EGFR L858R/T790M mutant, 1.58 nM. In addition, the IC50 came out at 4.63 nM in [2]; 0.19 nM at CLK1; 0.02 nM at CLK2; 12.1 nM at CLK3; 0.61 nM on CLK4.

Regarding `CC(C)c1noc2c1/C=C/c1n[nH]c3ccc(cc13)-c1cnn(C)c1O[C@@H](C)CN(C)C2` [Example 179, (10S,17E)-8,10,12-trimethyl-16-(propan-2-yl)-2,8,10,11,12,13-hexahydro-3,5-etheno[1,2]oxazolo[5,4-f]dipyrazolo[3,4-j:4′,3′-n][1,4]oxazacyclopentadecine], the IC50 at EGFR WT was over 1000 nM; at EGFR (D770_N771insNPG), over 1000 nM; at EGFR Δ746-750 mutant, over 1000 nM; in assay [1] it was over 1000 nM; against EGFR L858R mutant, over 1000 nM; on EGFR L858R/T790M mutant, 1010 nM. In addition, the IC50 amounted to 507 nM in assay [2]; 2.75 nM on CLK1; 9.57 nM on CLK2; 1000 nM at CLK3; 1.66 nM on CLK4.

Turning to `CC(C)Oc1nn(CCO)c2c1/C=C/c1n[nH]c3cc(F)c(cc13)-c1cnn(C)c1O[C@H](C)[C@H]1CCCN1C2` (single isomer, unassigned) [Example 255], the IC50 on EGFR WT came out at 1.43 nM; at EGFR (D770_N771insNPG), 4.05 nM; at EGFR Δ746-750 mutant, 0.95 nM; in [1], 1.98 nM; against EGFR L858R mutant, 1.18 nM; against EGFR L858R/T790M mutant it was 3.01 nM. In addition, the concentration for half-maximal inhibition (IC50) worked out at 6.62 nM in assay [2]; 0.82 nM at CLK1; 0.27 nM at CLK2; 9.89 nM at CLK3; 1.6 nM on CLK4.
